The numbers were not newly measured in article PMC10572662 (International Journal of Molecular Sciences, 2023), which cites them from elsewhere.

Bounds are passed on as bounds.

On the set-up of the data set: method as in PMID 17601630. The settings on record: native βCD and commercial βCD derivatives.
In the case of 2-hydroxypropyl-βCD, the water solubility is 600 mg/mL.

Turning to O-methyl-βCD, the water solubility is above 500 mg/mL.

On to sulfobutylether-βCD, for which the water solubility is above 500 mg/mL.
